This note sets out measurements from patent publication US6057450A, “Derivatives of pyroglutaminic acid preparation process and applications” (Totiam, S.L., priority 1994, dated 2000).

The experiment relates to human lymphocytes. In words: in vitro non-specific lymphoproliferative response (RLP-I) to PHA, human lymphocyte cultures. The format is cell-based. The settings on record: for RLP-I B < A, number of witness models / RLP-I B < A, percentage of witness models / RLP-I B > A, number of witness models / RLP-I B > A, percentage of witness models: Table V, PHA + BRM-BLAS (B) versus PHA (A); for number of cases with RLP-I B > A in 67% of the witness models / percentage of cases with RLP-I B > A in 33-50% of the witness models / percentage of cases with RLP-I B > A in 67% of the witness models / number of cases with RLP-I B > A in 33-50% of the witness models / number of cases with RLP-I B > A in 100% of the witness models / percentage of cases with RLP-I B > A in 100% of the witness models: Table VI, intragroup individual analysis. Here is the method:
The "in vitro" lymphocyte response has been assessed in samples of circulating and peripheral venous blood from asymptomatic blood donor adults of both sexes. In general, the lymphocyte cultures include in each case six experimental models called witnesses, and incorporate progressive doses between 0.25-6.0 units (20-500 ng) of the BRM-BLAS compounds and PHA. The RLP-I of each one has been morphologically determined and is expressed in absolute values of lymphoblasts/10,000.
Systematically, in all the cases it has been tabulated the RLP-I to the PHA, basal, of the PHA models; to the PHA+BRM-BLAS, of the "witness" models and the maximum individual response of the witness models (RMC), in each case.

Turning to `NC1(C[n+]2ccccc2)CC(C(=O)O)NC1=O` (centres unmarked) [BRM-BLAS 236 (Ac), 4-amino-4-(1-pyridiniomethyl) pyroglutamic acid acetate], the “number of cases with RLP-I B > A in 67% of the witness models” value came to 12 Num, the “percentage of cases with RLP-I B > A in 33-50% of the witness models” value was 100% and the “percentage of cases with RLP-I B > A in 67% of the witness models” value worked out at 82%. In addition, for the setting “acetate”, the “RLP-I B < A, number of witness models” value stood at 17 Num; the “RLP-I B < A, percentage of witness models” value is listed as 19%; the “RLP-I B > A, number of witness models” value came to 73 Num; the “RLP-I B > A, percentage of witness models” value worked out at 81%. Besides, under “acetate”, the “number of cases with RLP-I B > A in 33-50% of the witness models” value is 15 Num, the “number of cases with RLP-I B > A in 100% of the witness models” value amounted to 6 Num and the “percentage of cases with RLP-I B > A in 100% of the witness models” value was 40%.
With `CC(=O)NC1(C[n+]2ccccc2)CC(C(=O)O)N(C(C)=O)C1=O` (centres unmarked) [BRM-BLAS 320 (Cl), 1-acetyl-4-acetylamino-4-(1-pyridiniomethyl) pyroglutamic acid chloride], the “RLP-I B < A, number of witness models” value stood at 29 Num; the “RLP-I B < A, percentage of witness models” value amounted to 30%; the “RLP-I B > A, number of witness models” value is 67 Num; the “RLP-I B > A, percentage of witness models” value stood at 70%. The “number of cases with RLP-I B > A in 33-50% of the witness models” value came to 16 Num, the “number of cases with RLP-I B > A in 67% of the witness models” value turned out to be 11 Num, the “number of cases with RLP-I B > A in 100% of the witness models” value amounted to 2 Num and the “percentage of cases with RLP-I B > A in 33-50% of the witness models” value stood at 100%. Further, the “percentage of cases with RLP-I B > A in 67% of the witness models” value stood at 69% and the “percentage of cases with RLP-I B > A in 100% of the witness models” value was 13%.
